Data as given in US11648395B2, “Electrode assemblies for neuromodulation” (Cardionomic, Inc., priority 2018, dated 2023).

Test system: normal, non-HF ovine model
Assay: Correlation of right and left ventricle contractility (max dP/dt) after injection, heartbeat-by-heartbeat
Assay type: in vivo
Conditions: max(dP/dt) used as surrogate for contractility, after injection (calcium: 5 mL)
From the text: The correlation was a heartbeat-by-heartbeat analysis. Pressure measurements, taken by a Millar catheter comprising a MEMS pressure sensor, in units of max(dP/dt) was used as a surrogate for contractility. The first change, a dobutamine injection, provided a very high contractility increase greater than 500%. The average correlation between right ventricle contractility and left ventricle contractility was very good at 0.91, where 1.00 is a perfect correlation. Accordingly, if a subject is given a dobutamine injection, measuring changes to right ventricle contractility can provide accurate information about changes to left ventricle contractility. The first change was repeated three times. The second change, calcium injection at 5 mL, provided a contractility increase of about 20%. […] The average correlation between right ventricle contractility and left ventricle contractility using a Millar (MEMS) sensor on a catheter was very good at 0.91. The average correlation between right ventricle contractility and left ventricle contractility using a fluid-filled lumen of a Swan-Ganz catheter in communication with an external pressure sensor was also very good at 0.87. Accordingly, under certain circumstances such as measurement of an animal (normal, non-HF ovine model) model, if a subject is given a calcium injection, measuring changes to right ventricle contractility with a MEMS sensor or a fluid filled lumen can provide accurate information about changes to left ventricle contractility.

| Molecule | Contractility % Increase [%] | Contractility % Increase (listed as dobutamine injection) | Contractility % Increase (listed as calcium injection) |
| --- | --- | --- | --- |
| CC(CCc1ccc(O)cc1)NCCc1ccc(O)c(O)c1 (stereo not shown) [Dobutamine Injection, dobutamine] | >500 | greater than 500% |  |
| calcium [Calcium Injection] | ~20 |  | about 20% |
